Data set [1] has as its system Rattus norvegicus. The data set is described as follows: Antiinflammatory activity in carrageenan induced Sprague-Dawley rat assessed as reduction in edema formation after 3 hrs. Type of data set: functional. The following applies: read-out: ID50 (the source's name).
Data set [2] is filed under the species Mus musculus. Nature of the data set: Analgesic activity in mouse assessed as inhibition of acetic acid-induced writhing response relative to aspirin. Type of data set: functional. In general terms: Writhing tests count abdominal constrictions after an irritant is injected.
Data set [3] has as its target T1, Prostaglandin G/H synthase 2 (Homo sapiens, UniProt P35354).
T1 sequence (P35354 whole entry): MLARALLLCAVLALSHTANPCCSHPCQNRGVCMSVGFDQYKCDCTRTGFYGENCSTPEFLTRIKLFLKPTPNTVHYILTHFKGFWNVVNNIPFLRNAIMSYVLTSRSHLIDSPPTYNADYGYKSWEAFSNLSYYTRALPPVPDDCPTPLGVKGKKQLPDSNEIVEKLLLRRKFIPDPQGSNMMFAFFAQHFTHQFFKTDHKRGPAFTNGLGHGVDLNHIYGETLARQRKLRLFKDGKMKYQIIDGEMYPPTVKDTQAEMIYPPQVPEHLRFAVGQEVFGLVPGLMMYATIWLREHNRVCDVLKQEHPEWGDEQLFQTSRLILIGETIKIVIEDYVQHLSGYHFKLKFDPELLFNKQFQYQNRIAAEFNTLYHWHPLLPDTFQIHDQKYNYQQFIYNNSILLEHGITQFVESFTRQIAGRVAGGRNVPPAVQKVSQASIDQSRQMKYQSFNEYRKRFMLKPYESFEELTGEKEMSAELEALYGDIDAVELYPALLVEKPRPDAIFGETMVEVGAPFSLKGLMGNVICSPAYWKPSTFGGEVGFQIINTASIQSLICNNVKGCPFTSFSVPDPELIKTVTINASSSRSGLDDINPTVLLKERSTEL
Nature of the data set: Inhibition of human COX2.

The target in data set [4] is T2, Prostaglandin G/H synthase 1 (Homo sapiens, UniProt P23219). The data set is described as follows: Inhibition of human COX1.
T2 sequence (P23219 whole entry): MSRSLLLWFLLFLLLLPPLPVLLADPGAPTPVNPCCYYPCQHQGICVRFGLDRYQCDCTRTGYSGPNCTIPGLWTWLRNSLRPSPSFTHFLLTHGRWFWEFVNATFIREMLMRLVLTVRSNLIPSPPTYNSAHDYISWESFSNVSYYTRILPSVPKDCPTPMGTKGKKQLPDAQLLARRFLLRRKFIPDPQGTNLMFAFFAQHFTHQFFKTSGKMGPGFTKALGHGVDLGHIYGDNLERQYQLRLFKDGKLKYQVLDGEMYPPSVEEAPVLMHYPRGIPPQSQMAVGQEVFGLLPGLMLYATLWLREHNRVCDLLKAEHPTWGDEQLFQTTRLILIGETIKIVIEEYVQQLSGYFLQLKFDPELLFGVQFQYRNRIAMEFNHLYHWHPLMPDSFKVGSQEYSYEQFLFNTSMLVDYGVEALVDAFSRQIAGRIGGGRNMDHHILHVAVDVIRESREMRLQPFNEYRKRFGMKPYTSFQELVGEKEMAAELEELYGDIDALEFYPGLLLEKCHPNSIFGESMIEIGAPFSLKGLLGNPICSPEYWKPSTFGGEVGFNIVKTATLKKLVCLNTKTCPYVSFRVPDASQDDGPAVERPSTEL
The subject of data set [5] is Rattus norvegicus. Nature of the data set: Antiinflammatory activity in rat assessed as fold change in inhibition of paw edema relative to phenylbutazone. Type of data set: functional.
The nature of data set [6]: Gastrointestinal toxicity in rat assessed as ulcer index at 20 mg/kg, po. Type of data set: organism-based. The settings on record: in vivo.
The test system of data set [7] is Rattus norvegicus. The data set is described as follows: Antiinflammatory activity in rat assessed as inhibition of paw edema. Type of data set: functional.
Data set [8] deals with Rattus norvegicus. Nature of the data set: Antiinflammatory activity against carrageenan-induced paw edema in Wistar rat assessed as inhibition of edema at 30 mg/kg, po for 1 hr prior to carrageenan induction. Type of data set: functional.
Data set [9] concerns Mus musculus. The data set is described as follows: Analgesic activity in ddY mouse assessed as inhibition of acetic acid induced writhing at 30 mg/kg, po for 30 mins followed by acetic acid injection and measured after 5 to 10 mins. Type of data set: functional. The following applies: time 35-40 min. Details: scale not given: the % may be the effect or the level left.
Data set [10] addresses T1, Prostaglandin G/H synthase 2. The data set is described as follows: Inhibition of COX2 (unknown origin).
The target in data set [11] is T3, Polyunsaturated fatty acid 5-lipoxygenase (Homo sapiens) (UniProt P09917).
T3 sequence (whole entry): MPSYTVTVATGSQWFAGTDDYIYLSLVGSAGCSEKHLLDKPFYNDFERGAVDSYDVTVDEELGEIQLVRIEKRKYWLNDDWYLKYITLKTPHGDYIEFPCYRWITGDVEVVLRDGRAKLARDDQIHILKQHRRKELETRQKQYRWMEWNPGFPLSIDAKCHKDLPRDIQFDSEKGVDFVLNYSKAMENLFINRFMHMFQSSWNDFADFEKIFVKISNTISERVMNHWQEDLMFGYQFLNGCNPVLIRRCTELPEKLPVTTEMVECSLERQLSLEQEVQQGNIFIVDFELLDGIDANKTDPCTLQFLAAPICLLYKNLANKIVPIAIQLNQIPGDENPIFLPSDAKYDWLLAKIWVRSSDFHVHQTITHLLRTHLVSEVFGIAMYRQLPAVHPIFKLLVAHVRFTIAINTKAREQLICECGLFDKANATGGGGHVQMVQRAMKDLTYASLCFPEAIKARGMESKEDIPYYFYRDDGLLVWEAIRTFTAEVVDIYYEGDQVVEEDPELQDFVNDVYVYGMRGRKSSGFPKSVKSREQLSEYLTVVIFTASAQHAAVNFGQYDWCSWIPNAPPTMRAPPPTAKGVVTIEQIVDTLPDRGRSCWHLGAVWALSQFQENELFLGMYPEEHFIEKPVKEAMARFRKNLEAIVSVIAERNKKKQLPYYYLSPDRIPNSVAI
Nature of the data set: Inhibition of 5-LOX in human PMNL at 10 uM relative to control. Type of data set: cell-based.

Data set [12] has as its target T4, Prostaglandin G/H synthase 1 (Bos taurus) (UniProt O62664).
T4 sequence (whole entry): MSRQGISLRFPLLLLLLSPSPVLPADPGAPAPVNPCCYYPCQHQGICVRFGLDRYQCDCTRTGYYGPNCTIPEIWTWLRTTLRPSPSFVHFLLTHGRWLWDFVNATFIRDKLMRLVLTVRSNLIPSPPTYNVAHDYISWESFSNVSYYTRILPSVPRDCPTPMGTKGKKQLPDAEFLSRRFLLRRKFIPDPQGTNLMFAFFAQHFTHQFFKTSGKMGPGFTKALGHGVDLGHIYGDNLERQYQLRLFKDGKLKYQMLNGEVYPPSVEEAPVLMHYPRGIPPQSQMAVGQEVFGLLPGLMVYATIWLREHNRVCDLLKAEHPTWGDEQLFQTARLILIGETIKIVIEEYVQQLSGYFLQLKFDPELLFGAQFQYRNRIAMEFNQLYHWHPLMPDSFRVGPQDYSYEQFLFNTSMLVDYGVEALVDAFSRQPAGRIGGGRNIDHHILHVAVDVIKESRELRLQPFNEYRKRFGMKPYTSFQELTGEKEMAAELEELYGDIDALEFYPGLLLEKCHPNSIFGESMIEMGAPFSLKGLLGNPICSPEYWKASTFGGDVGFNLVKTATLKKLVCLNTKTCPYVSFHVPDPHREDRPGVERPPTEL
The data set is described as follows: Inhibition of COX1 in bovine thrombocyte at 10 uM relative to control.

Data set [13] is described as follows: Toxicity in gastric mucosa of rat assessed as ulcer index at 10 mg/kg. Type of data set: organism-based. The settings on record: in vivo.
Data set [14] deals with T2, Prostaglandin G/H synthase 1. The data set is described as follows: Inhibition of COX1 (unknown origin).
Data set [15] can be described thus: Drug excretion in human urine assessed as keto ro lac level. Type of data set: ADME.
Data set [16] is described as follows: Toxicity in gastric mucosa of rat assessed as ulcer index at 400 mg/kg. Type of data set: organism-based. The following applies: in vivo.
Data set [17] in a line: Drug excretion in human urine assessed as glucuronide conjugate level. Type of data set: ADME.
The nature of data set [18]: Drug excretion in human urine assessed as 4-hydroxy keto ro lac level. Type of data set: ADME.
Data set [19] deals with T5, Polyunsaturated fatty acid 5-lipoxygenase (Homo sapiens, UniProt P09917).
T5 sequence (P09917 whole entry): T3 sequence (whole entry)
The data set is described as follows: Inhibition of 5-LOX (unknown origin).

The species entered for another data set is Oryctolagus cuniculus. The data set is described as follows: Inhibition of collagen-induced platelet aggregation in rabbit concha artery blood at 10 uM. Type of data set: functional.
The nature of data set [20]: Toxicity in gastric mucosa of rat assessed as ulcer index at 200 mg/kg. Type of data set: organism-based. The following applies: in vivo.

This is an account of results in ChEMBL document CHEMBL5257022, “An integrated overview on pyrrolizines as potential anti-inflammatory, analgesic and antipyretic agents” (Eur J Med Chem, 2016).

Structures are written as SMILES.

For the molecule `O=C(c1ccccc1)c1ccc2n1CCC2C(=O)O` (racemic) [KETOROLAC], in the data set with Rattus norvegicus [1], the ED50 was found to be 0.08 mg/kg. For the same molecule, the “fold change (FC)” value in the data set filed under Mus musculus [2] came to 350; in the data set on Rattus norvegicus [5] it was 36. Moreover, the IC50 (as a rule, the concentration that inhibits the measured activity by half) was found to be 3.5 µM in data set [3] and 1.23 µM in data set [4].

As for `N#Cc1c(N)c(C(=O)Nc2ccccc2Cl)n2c1CCC2`, the UI in data set [6] came to 9.2. Besides, the “inhibition (INH)” value with Rattus norvegicus [7] stood at 36.1%.

In the case of `COc1ccc(-c2c(-c3ccc(Cl)cc3)cc3n2CCC3C(=O)O)cc1` (stereo unspecified), the inhibition in vivo – broadly, how much of the control response was suppressed – at 30 mg/kg in the data set with Rattus norvegicus [8] was 48.2%. For the same molecule, in the data set with Mus musculus [9], the Activity is reported as 87.3%.

In turn, `Cc1ccc(-c2cn3c(c2-c2ccccc2)CCC3)s1` came in with an IC50 in data set [10] of 1.8 µM. Further, the IP in data set [11] and in [12] was 0% in each case.

Consider `COc1ccc2c(c1)c(CC(=O)O)c(C)n2C(=O)c1ccc(Cl)cc1` [INDOMETHACIN], for which, in data set [13], the UI amounted to 14.

For the molecule `Cc1ccccc1NC(=O)c1c2[nH]cnc(=O)c2c2n1CCC2`, the UI in data set [6] was 17.4. For the same molecule, in the data set on Rattus norvegicus [7], the “inhibition (INH)” value is 28.8%.

With `CS(=O)(=O)c1ccc(-c2cn3c(c2-c2ccc(Cl)cc2)CCC3)cc1`, the IC50 in data set [14] stood at 8.2 µM; in [10], 0.008 µM. This molecule displayed an IP in data set [11] of 0%.

In [14], `O=C(O)/C=C/c1c(-c2ccc(CCc3ccccc3)cc2)c(-c2ccccc2)c2n1CCC2` gave an IC50 of 10 µM. For the same molecule, in [12], the IP was found to be 58%.

On to `Clc1ccc(-c2cn3c(c2-c2ccccc2)CCC3)s1`, for which inhibition in data set [14] was half-maximal at 3.9 µM (IC50). Besides, the IP in data set [11] came to 0%.

On to `Cc1ccc(NCC2Cn3cccc3C2=O)cc1` (stereo unspecified), for which the Drug excretion amounted to 60% in [15], 28% in [17] and 12% in data set [18]. The UI in data set [16] turned out to be 0.

On to `CSc1ccc(-c2cn3c(c2-c2ccc(C)cc2)CCC3)cc1`, for which the IC50 in data set [14] is 0.03 µM; in data set [10], 0.9 µM. In addition, the IP in data set [11] came to 0%.

With `Cc1ccccc1NC(=O)c1c(N)c(C#N)c2n1CCC2`, in [6], the UI was 11.3. In the data set on Rattus norvegicus [7], the “inhibition (INH)” value worked out at 31.6%.

As to `c1ccc(-c2c(-c3ccco3)cn3c2CCC3)cc1`, in data set [12], the IP was found to be 20%. This molecule came in with an IC50 in data set [19] of 10 µM.

`CSc1ccc(-c2cn3c(c2-c2ccc(F)cc2)CCC3)cc1`: in data set [10], it took 0.1 µM to reach half-maximal inhibition (IC50). Further, the IP in [11] came out at 0%; in [12], 28%.

As for `O=C(O)C1CCn2c1cc(-c1ccc(Cl)cc1)c2-c1ccc(Cl)cc1` (stereo unspecified), the inhibition in vivo at 30 mg/kg in the data set with Rattus norvegicus [8] turned out to be 52.3%. Moreover, the Activity in the data set with Mus musculus [9] is given as 81.3%.

As to `O=C(Nc1ccccc1)C1CCn2c1cc(-c1ccc(Cl)cc1)c2-c1ccc(Cl)cc1` (stereo unspecified), the inhibition in vivo at 30 mg/kg in the data set with Rattus norvegicus [8] came to 37.4%. For the same molecule, in the data set listed under Oryctolagus cuniculus, the inhibition (in general, the change of the read-out against control, counted positive when it falls) at 10 µM amounted to 78%.

Regarding `CS(=O)(=O)c1ccc(-c2cn3c(c2-c2ccccc2)CCC3)cc1`, the figures for the IC50 in data set [10] and in [19] were 0.03 µM and 10 µM, respectively. Also, the IP in [12] was found to be 25%.

Turning to `CC(C)Cc1ccc(C(C)C(=O)O)cc1` (stereo unspecified) [IBUPROFEN], the UI in [20] amounted to 13.3.

Regarding `CS(=O)(=O)c1ccc(-c2cn3c(c2-c2ccc(F)cc2)CCC3)cc1`, the IC50 in data set [14] came out at 4.3 µM; in [10], 0.16 µM. Besides, the IP in [11] came out at 0%.

For `Brc1ccc(-c2cn3c(c2-c2ccccc2)CCC3)s1`, in [12], the IP turned out to be 25%. This molecule yielded an IC50 in data set [19] of 8.4 µM.

As to `CS(=O)(=O)Nc1ccc(-c2cn3c(c2-c2ccc(Cl)cc2)CCC3)cc1`, the IP in [11] and in data set [12] was 0% throughout.

Turning to `O=C(c1ccccc1)c1ccc2n1CC[C@@H]2C(=O)O`, in the data set on Rattus norvegicus [1], the ED50 is 0.02 mg/kg. The IC50 in data set [3] is 1.46 µM; in data set [4], 0.46 µM.

Molecule `c1ccc(-c2c(-c3cccs3)cn3c2CCC3)cc1` yielded an IC50 in [19] of 10 µM.

As for `CSc1ccc(-c2cn3c(c2-c2ccccc2)CCC3)cc1`, the IC50 in [14] is 1.1 µM; in [10], 1 µM. Further, the IP in data set [11] was 0%.

As for `CS(=O)(=O)Nc1ccc(-c2cn3c(c2-c2ccccc2)CCC3)cc1`, the IC50 in [10] was 3.6 µM; in data set [19] it was 3.4 µM. In addition, in data set [12], the IP is 10%.

`O=C(Nc1ccccc1Cl)c1c2[nH]cnc(=O)c2c2n1CCC2`: the UI in data set [6] came to 15.1. For the same molecule, in the data set on Rattus norvegicus [7], the “inhibition (INH)” value was 30.3%.

With `O=C(c1ccccc1)c1ccc2n1CC[C@H]2C(=O)O`, in the data set on Rattus norvegicus [1], the ED50 came to 4 mg/kg. Further, the IC50 in data set [3] and in data set [4] was more than 100 µM each time.
